Laboratory results as given in patent US20250017935A1, “7,8-DIHYDRO-5H-1,6-NAPHTHYRIDINE DERIVATIVES AS POSITIVE ALLOSTERIC MODULATORS OF THE MUSCARINIC ACETYLCHOLINE RECEPTOR M4 FOR TREATING NEUROLOGICAL AND PSYCHIATRIC DISORDERS” (Vanderbilt University, priority 2021, published 2025).
pEC50: −log10 of the molar value.

Target: T1, Human M4 (Homo sapiens, UniProt P08173)
T1 construct: expressed in transfected cells; host or cells: CHO-K1 (ATCC), stably expressing hM4 and Gqi5
T1 sequence (P08173 1-479): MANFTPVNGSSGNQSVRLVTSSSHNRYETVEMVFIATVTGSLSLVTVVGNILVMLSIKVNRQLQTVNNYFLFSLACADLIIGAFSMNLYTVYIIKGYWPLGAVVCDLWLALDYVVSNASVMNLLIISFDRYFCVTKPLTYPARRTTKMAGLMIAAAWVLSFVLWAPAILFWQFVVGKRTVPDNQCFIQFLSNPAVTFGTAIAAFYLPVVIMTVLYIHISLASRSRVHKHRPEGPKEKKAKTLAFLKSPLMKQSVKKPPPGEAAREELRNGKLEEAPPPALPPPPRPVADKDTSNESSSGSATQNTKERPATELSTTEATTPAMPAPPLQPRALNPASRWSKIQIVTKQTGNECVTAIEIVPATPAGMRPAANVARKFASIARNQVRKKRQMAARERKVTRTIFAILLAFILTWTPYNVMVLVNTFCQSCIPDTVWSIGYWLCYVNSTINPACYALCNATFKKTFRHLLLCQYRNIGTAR
Experiment: mAChR M4 cell-based functional assay (calcium flux, potentiation of EC20 acetylcholine response) in hM4-Gqi5 CHO-K1 cells
Settings: for Emax at 30 µM: % ACh maximum at 30 μM, human M4 CHO-K1 cells; for pEC50: CHO-K1 cells transfected with human M4 and Gqi5, positive allosteric modulator activity, EC20 acetylcholine
Procedure: Human M4 cDNA, along with the chimeric G protein Gqi5, were transfected into Chinese hamster ovary (CHO-K1) cells purchased from the American Type Culture Collection using commercially available Lipofectamine 2000 transfection reagent (Dalby, B. et al., Methods (2004) 33(2), 95-103). hM4-Gqi5 cells were grown in Ham's F-12 medium containing 10% heat-inactivated fetal bovine serum (FBS), 20 mM HEPES, 50 μg/mL G418 sulfate (CAS #108321-42-2), and 500 μg/mL Hygromycin B. rM4-Gqi5 cells were grown in DMEM containing 10% heat-inactivated FBS, 20 mM HEPES, 400 μg/mL G418 sulfate, and 500 μg/mL Hygromycin B.
For high throughput measurement of agonist-evoked increases in intracellular calcium, CHO-K1 cells stably expressing muscarinic receptors were plated in growth medium lacking G418 sulfate and hygromycin at 15,000 cells/20 μL/well in Greiner 384-well black-walled, tissue culture (TC)-treated, clear-bottom plates (VWR). Cells were incubated overnight at 37° C. and 5% CO2. The next day, cells were washed using an ELX 405 (BioTek) with assay buffer; the final volume was then aspirated to 20 μL. Next, 20 μL of a 2.3 μM stock of Fluo-4/acetoxymethyl ester (Invitrogen, Carlsbad, CA), prepared as a 2.3 mM stock in DMSO and mixed in a 1:1 ratio with 10% (w/v) Pluronic F-127 and diluted in assay buffer, was added to the wells and the cell plates were incubated for 50 minutes at 37° C. and 5% CO2. Dye was removed by washing with the ELX 405 and the final volume was aspirated to 20 μL. Compound master plates were formatted in an 11 point concentration-response curve (CRC) format (1:3 dilutions) in 100% DMSO with a starting concentration of 10 mM using a BRAVO liquid handler (Agilent). Test compound CRCs were then transferred to daughter plates (240 nL) using the Echo acoustic plate reformatter (Labcyte, Sunnyvale, CA) and then diluted into assay buffer (40 μL) to a 2× stock using a Thermo Fisher Combi (Thermo Fisher Scientific, Waltham, MA).
Calcium flux was measured using the Functional Drug Screening System (FDSS) 6000 or 7000 (Hamamatsu Corporation, Tokyo, Japan) as an increase in the fluorescent static ratio. Compounds were applied to cells (20 μL, 2×) using the automated system of the FDSS at 2-4 seconds into the protocol and the data were collected at 1 Hz. […] Agonist activity was analyzed as a concentration-dependent increase in calcium mobilization upon compound addition. Positive allosteric modulator activity was analyzed as a concentration-dependent increase in the EC20 acetylcholine response. With the acetylcholine EC20 set as baseline, the test compound EC50 is determined as the concentration that produces an increase above baseline of 50% of the maximum increase in acetylcholine response elicted by the test compound. Antagonist activity was analyzed as a concentration-dependent decrease in the EC80 acetylcholine response. Concentration-response curves were generated using a four-parameter logistical equation in XLFit curve fitting software (IDBS, Bridgewater, NJ) for Excel (Microsoft, Redmond, WA) or Prism (GraphPad Software, Inc., San Diego, CA).
Compounds were synthesized as described above. Activity (EC50 and Emax) was determined in the mAChR M4 cell-based functional assay as described above and the data are shown in Table 5. The compound numbers correspond to the compound numbers used in Examples 1-13 and Tables 1, 2, and 3.

Compound	Emax at 30 µM [%]	pEC50
Cn1nccc1Nc1cnc2c(c1)CN(c1nc(Cl)nc3c1COC3)CC2 [Compound 67, 6-(2-chloro-5,7-dihydrofuro[3,4-d]pyrimidin-4-yl)-N-(1-methyl-1H-pyrazol-5-yl)-5,6,7,8-tetrahydro-1,6-naphthyridin-3-amine]	51	5.91
Clc1nc2c(c(N3CCc4ncc(N5CCCn6nccc65)cc4C3)n1)COC2 [Compound 64, 2-chloro-4-(3-(6,7-dihydropyrazolo[1,5-a]pyrimidin-4(5H)-yl)-7,8-dihydro-1,6-naphthyridin-6(5H)-yl)-5,7-dihydrofuro[3,4-d]pyrimidine]	62	6.52
FC(F)(F)c1cnc2c(c1)CN(c1ncnc3scc(C4CC4)c13)CC2 [Compound 37, 5-cyclopropyl-4-[3-(trifluoromethyl)-7,8-dihydro-5H-1,6-naphthyridin-6-yl]thieno[2,3-d]pyrimidine]	22	5.86
Cn1nccc1Nc1cnc2c(c1)CN(c1ncnc3sccc13)CC2 [Compound 34, N-(2-methylpyrazol-3-yl)-6-thieno[2,3-d]pyrimidin-4-yl-7,8-dihydro-5H-1,6-naphthyridin-3-amine]	55	7.00
Cc1coc2ncnc(N3CCc4ncc(Nc5ccnn5C)cc4C3)c12 [Compound 55, 6-(5-methylfuro[2,3-d]pyrimidin-4-yl)-N-(2-methylpyrazol-3-yl)-7,8-dihydro-5H-1,6-naphthyridin-3-amine]	94	7.22
Cc1coc2ncnc(N3CCc4ncc(C(F)(F)F)cc4C3)c12 [Compound 41, 5-methyl-4-[3-(trifluoromethyl)-7,8-dihydro-5H-1,6-naphthyridin-6-yl]furo[2,3-d]pyrimidine]	86	7.30
Cn1ccc2c(N3CCc4ncc(C(F)(F)F)cc4C3)ncnc21 [Compound 61, 6-(7-methylpyrrolo[2,3-d]pyrimidin-4-yl)-3-(trifluoromethyl)-7,8-dihydro-5H-1,6-naphthyridine]	80	6.08
Cc1noc2ncnc(N3CCc4ncc(C(F)(F)F)cc4C3)c12 [Compound 40, 3-methyl-4-[3-(trifluoromethyl)-7,8-dihydro-5H-1,6-naphthyridin-6-yl]isoxazolo[5,4-d]pyrimidine]	94	6.15
Cn1ncc2ncnc(N3CCc4ncc(C(F)(F)F)cc4C3)c21 [Compound 60, 6-(1-methylpyrazolo[4,3-d]pyrimidin-7-yl)-3-(trifluoromethyl)-7,8-dihydro-5H-1,6-naphthyridine]	31	5.22
Cc1noc2ncnc(N3CCc4ncc(-c5cnn(C6CC6)c5)cc4C3)c12 [Compound 46, 4-[3-(1-cyclopropylpyrazol-4-yl)-7,8-dihydro-5H-1,6-naphthyridin-6-yl]-3-methyl-isoxazolo[5,4-d]pyrimidine]	75	6.43
Cc1sc2ncnc(N3CCc4ncc(C(F)(F)F)cc4C3)c2c1C [Compound 1, 5,6-dimethyl-4-[3-(trifluoromethyl)-7,8-dihydro-5H-1,6-naphthyridin-6-yl]thieno[2,3-d]pyrimidine]	85	6.21
Cc1csc2c(N3CCc4ncc(N5CCCn6nccc65)cc4C3)ncnc12 [Compound 22, 4-[3-(6,7-dihydro-5H-pyrazolo[1,5-a]pyrimidin-4-yl)-7,8-dihydro-5H-1,6-naphthyridin-6-yl]-7-methyl-thieno[3,2-d]pyrimidine]	85	6.55
Cc1csc2ncnc(N3CCc4ncc(N5CCCn6nccc65)cc4C3)c12 [Compound 25, 4-[3-(6,7-dihydro-5H-pyrazolo[1,5-a]pyrimidin-4-yl)-7,8-dihydro-5H-1,6-naphthyridin-6-yl]-5-methyl-thieno[2,3-d]pyrimidine]	96	7.22
Cc1coc2ncnc(N3CCc4ncc(Nc5cccnc5F)cc4C3)c12 [Compound 39, N-(2-fluoro-3-pyridyl)-6-(5-methylfuro[2,3-d]pyrimidin-4-yl)-7,8-dihydro-5H-1,6-naphthyridin-3-amine]	94	7.10
CC(C)c1cc2c(N3CCc4ncc(N5CCCn6nccc65)cc4C3)ncnc2s1 [Compound 31, 4-[3-(6,7-dihydro-5H-pyrazolo[1,5-a]pyrimidin-4-yl)-7,8-dihydro-5H-1,6-naphthyridin-6-yl]-6-isopropyl-thieno[2,3-d]pyrimidine]	58	6.36
Cc1nn(C)cc1-c1cnc2c(c1)CN(c1ncnc3occ(C)c13)CC2 [Compound 44, 4-[3-(1,3-dimethylpyrazol-4-yl)-7,8-dihydro-5H-1,6-naphthyridin-6-yl]-5-methyl-furo[2,3-d]pyrimidine]	95	6.92
Cc1ccc(-c2cnc3c(c2)CN(c2ncnc4occ(C)c24)CC3)cn1 [Compound 48, 5-methyl-4-[3-(6-methyl-3-pyridyl)-7,8-dihydro-5H-1,6-naphthyridin-6-yl]furo[2,3-d]pyrimidine]	102	7.05
Cc1cc2c(N3CCc4ncc(N5CCCn6nccc65)cc4C3)ncnc2s1 [Compound 2, 4-[3-(6,7-dihydro-5H-pyrazolo[1,5-a]pyrimidin-4-yl)-7,8-dihydro-5H-1,6-naphthyridin-6-yl]-6-methyl-thieno[2,3-d]pyrimidine]	106	7.52
Fc1ccccc1Oc1cnc2c(c1)CN(c1ncnc3sccc13)CC2 [Compound 33, 4-[3-(2-fluorophenoxy)-7,8-dihydro-5H-1,6-naphthyridin-6-yl]thieno[2,3-d]pyrimidine]	46	6.70
Cc1noc2ncnc(N3CCc4ncc(N5CCCn6nccc65)cc4C3)c12 [Compound 45, 4-[3-(6,7-dihydro-5H-pyrazolo[1,5-a]pyrimidin-4-yl)-7,8-dihydro-5H-1,6-naphthyridin-6-yl]-3-methyl-isoxazolo[5,4-d]pyrimidine]	93	7.05
Cc1ccc(-c2cnc3c(c2)CN(c2ncnc4scc(C)c24)CC3)cn1 [Compound 17, 5-methyl-4-[3-(6-methyl-3-pyridyl)-7,8-dihydro-5H-1,6-naphthyridin-6-yl]thieno[2,3-d]pyrimidine]	79	6.74
Cc1ncc(-c2cnc3c(c2)CN(c2ncnc4scc(C)c24)CC3)s1 [Compound 18, 5-methyl-4-[3-(2-methylthiazol-5-yl)-7,8-dihydro-5H-1,6-naphthyridin-6-yl]thieno[2,3-d]pyrimidine]	72	6.33
Cc1nn(C)cc1-c1cnc2c(c1)CN(c1ncnc3scc(C)c13)CC2 [Compound 28, 4-[3-(1,3-dimethylpyrazol-4-yl)-7,8-dihydro-5H-1,6-naphthyridin-6-yl]-5-methyl-thieno[2,3-d]pyrimidine]	78	7.05
